In ChEMBL document CHEMBL1144083, “Phenylvaleric acid and flavonoid glycosides from Polygonum salicifolium” (J Nat Prod, 1999):
Activity calls are given as the source filed them. The rule behind the calls is not given here.

What follows are compounds tested on Radical scavenging activity (assay: Antioxidant activity assessed as DPPH free radical scavenging activity by TLC autographic assay).
Type: functional

| Compound | Activity |
| --- | --- |
| O=C(O)C[C@@H](CCc1ccccc1)O[C@H]1O[C@@H](CO)[C@H](O)[C@@H](O)[C@@H]1O | inactive |
| CCCCOC(=O)C[C@@H](CCc1ccccc1)O[C@H]1O[C@@H](CO)[C@H](O)[C@@H](O)[C@@H]1O | inactive |
| COc1cc(O[C@@H]2O[C@H](CO[C@@H]3O[C@H](CO)[C@@H](O)[C@H](O)[C@H]3O)[C@@H](O)[C@H](O)[C@H]2O)c(OC)c(O)c1C(=O)CCc1ccccc1 | inactive |

These compounds were tested on Radical scavenging activity (assay: Antioxidant activity assessed as DPPH free radical scavenging activity at 4 ug by TLC autographic assay).
Type: functional

| Compound | Activity |
| --- | --- |
| O=C(O)[C@H]1O[C@@H](Oc2c(-c3ccc(O)c(O)c3)oc3cc(O)cc(O)c3c2=O)[C@H](O)[C@@H](O)[C@@H]1O | Active |
| O=c1c(O[C@@H]2O[C@H](CO)[C@H](O)[C@H](O)[C@H]2O)c(-c2ccc(O)c(O)c2)oc2cc(O)cc(O)c12 | Active |
| O=C(O[C@H]1[C@H](Oc2c(-c3ccc(O)c(O)c3)oc3cc(O)cc(O)c3c2=O)O[C@H](CO)[C@@H](O)[C@@H]1O)c1cc(O)c(O)c(O)c1 | Active |
| O=c1c(O[C@@H]2O[C@H](CO)[C@@H](O)[C@H](O)[C@H]2O)c(-c2ccc(O)c(O)c2)oc2cc(O)cc(O)c12 | Active |

The compounds below were run on Radical scavenging activity (assay: Antioxidant activity assessed as DPPH free radical scavenging activity at 8 ug by TLC autographic assay).
Type: functional

| Compound | Activity |
| --- | --- |
| O=C(O)[C@H]1O[C@@H](Oc2c(-c3ccc(O)c(O)c3)oc3cc(O)cc(O)c3c2=O)[C@H](O)[C@@H](O)[C@@H]1O | Active |
| O=c1c(O[C@@H]2O[C@H](CO)[C@H](O)[C@H](O)[C@H]2O)c(-c2ccc(O)c(O)c2)oc2cc(O)cc(O)c12 | Active |
| O=C(O[C@H]1[C@H](Oc2c(-c3ccc(O)c(O)c3)oc3cc(O)cc(O)c3c2=O)O[C@H](CO)[C@@H](O)[C@@H]1O)c1cc(O)c(O)c(O)c1 | Active |
| O=c1c(O[C@@H]2O[C@H](CO)[C@@H](O)[C@H](O)[C@H]2O)c(-c2ccc(O)c(O)c2)oc2cc(O)cc(O)c12 | Active |

What follows are compounds tested on Radical scavenging activity (assay: Antioxidant activity assessed as DPPH free radical scavenging activity at 2 ug by TLC autographic assay).
Type: functional

| Compound | Activity |
| --- | --- |
| O=C(O)[C@H]1O[C@@H](Oc2c(-c3ccc(O)c(O)c3)oc3cc(O)cc(O)c3c2=O)[C@H](O)[C@@H](O)[C@@H]1O | Active |
| O=c1c(O[C@@H]2O[C@H](CO)[C@H](O)[C@H](O)[C@H]2O)c(-c2ccc(O)c(O)c2)oc2cc(O)cc(O)c12 | Active |
| O=C(O[C@H]1[C@H](Oc2c(-c3ccc(O)c(O)c3)oc3cc(O)cc(O)c3c2=O)O[C@H](CO)[C@@H](O)[C@@H]1O)c1cc(O)c(O)c(O)c1 | Active |
| O=c1c(O[C@@H]2O[C@H](CO)[C@@H](O)[C@H](O)[C@H]2O)c(-c2ccc(O)c(O)c2)oc2cc(O)cc(O)c12 | Active |

What follows are compounds tested on Radical scavenging activity (assay: Antioxidant activity assessed as DPPH free radical scavenging activity at 6 ug by TLC autographic assay).
Type: functional

| Compound | Activity |
| --- | --- |
| O=C(O)[C@H]1O[C@@H](Oc2c(-c3ccc(O)c(O)c3)oc3cc(O)cc(O)c3c2=O)[C@H](O)[C@@H](O)[C@@H]1O | Active |
| O=c1c(O[C@@H]2O[C@H](CO)[C@H](O)[C@H](O)[C@H]2O)c(-c2ccc(O)c(O)c2)oc2cc(O)cc(O)c12 | Active |
| O=C(O[C@H]1[C@H](Oc2c(-c3ccc(O)c(O)c3)oc3cc(O)cc(O)c3c2=O)O[C@H](CO)[C@@H](O)[C@@H]1O)c1cc(O)c(O)c(O)c1 | Active |
| O=c1c(O[C@@H]2O[C@H](CO)[C@@H](O)[C@H](O)[C@H]2O)c(-c2ccc(O)c(O)c2)oc2cc(O)cc(O)c12 | Active |
